Laboratory results from ChEMBL document CHEMBL1201862, “PubChem BioAssay data set” (2004).
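Where inhibition never reached the appropriate level, the endpoint shown equals the highest concentration tested. Otherwise, values were interpolated linearly from a five-concentration, 48-hour dose response in 96-well plates. GI50 marks 50% less growth.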 The source made the active and inactive calls. Cut-off read from the data, not from the text of the source: active = GI50 up to about 1.1 µM and inactive = higher.

What was measured:
Assay in all cases: inhibition of tumour cell growth, NCI panel, 48 h
NCI-H522 = test system: NCI-H522
K562 = test system: K562
RXF 393 = test system: RXF 393
HT-29 = test system: HT-29
IGROV-1 = test system: IGROV-1
UACC-257 = test system: UACC-257
HCT-15 = test system: HCT-15
CAKI-1 = test system: CAKI-1
SN12C = test system: SN12C
OVCAR-3 = test system: OVCAR-3
EKVX = test system: EKVX
DU-145 = test system: DU-145
HCT-116 = test system: HCT-116
NCI-H226 = test system: NCI-H226
SR = test system: SR
SK-MEL-5 = test system: SK-MEL-5
ACHN = test system: ACHN
SK-MEL-28 = test system: SK-MEL-28
HCC 2998 = test system: HCC 2998
HOP-92 = test system: HOP-92

Row | SMILES | GI50 (NCI-H522) | GI50 (K562) | GI50 (RXF 393) | GI50 (HT-29) | GI50 (IGROV-1) | GI50 (UACC-257) | GI50 (HCT-15) [µM] | GI50 (CAKI-1) | GI50 (SN12C) | GI50 (OVCAR-3) | GI50 (EKVX) | GI50 (DU-145) | GI50 (HCT-116) | GI50 (NCI-H226) | GI50 (SR) | GI50 (SK-MEL-5) | GI50 (ACHN) | GI50 (SK-MEL-28) | GI50 (HCC 2998) | GI50 (HOP-92)
1 | CCOC(=O)Cc1cc(=O)oc2cc(O)ccc12 | > 100 µM (inactive) | > 100 µM (inactive) | > 100 µM (inactive) | > 100 µM (inactive) | > 100 µM (inactive) | > 100 µM (inactive) | > 100 | > 100 µM (inactive) | > 100 µM (inactive) | > 100 µM (inactive) | > 100 µM (inactive) | > 100 µM (inactive) | > 100 µM (inactive) | > 100 µM (inactive) | > 100 µM (inactive) | > 100 µM (inactive) | > 100 µM (inactive) | > 100 µM (inactive) |  | 
2 | COC(=O)[C@@H](OC(C)=O)[C@@H](OC(C)=O)c1nnc2ccc(Cl)nn12 | 22.2 µM (inactive) |  | > 100 µM (inactive) | > 100 µM (inactive) | 85.3 µM (inactive) | 87.9 µM (inactive) | > 100 | 92 µM (inactive) | > 100 µM (inactive) | > 100 µM (inactive) | > 100 µM (inactive) | > 100 µM (inactive) | > 100 µM (inactive) |  |  | > 100 µM (inactive) | > 100 µM (inactive) | 97.7 µM (inactive) | 36.2 µM (inactive) | 
3 | COc1ccc2ccccc2c1C1NC(=O)c2ccccc2N1 (stereo unspecified) | 1.54 µM (inactive) | 0.279 µM (active) | 1.37 µM (inactive) | 0.873 µM (active) | 1.72 µM (inactive) | 20.8 µM (inactive) | 0.436 | 2.62 µM (inactive) | 2.67 µM (inactive) | 0.398 µM (active) | 2.51 µM (inactive) | 1.53 µM (inactive) | 0.614 µM (active) | 1.57 µM (inactive) |  | 0.384 µM (active) | 1.26 µM (inactive) | 0.802 µM (active) | 1.95 µM (inactive) | 14.8 µM (inactive)
4 | CC(C)(C)CC(C)(C)c1cc(O)c(O)c(CN2CCCCC2)c1 | 10.8 µM (inactive) | 4.25 µM (inactive) | 12.8 µM (inactive) | 5.69 µM (inactive) | 17.5 µM (inactive) | 13.3 µM (inactive) | 4.01 | 14.2 µM (inactive) | 15.7 µM (inactive) | 14.7 µM (inactive) | 12.7 µM (inactive) | 14.5 µM (inactive) | 15.3 µM (inactive) | 16.7 µM (inactive) |  | 15.6 µM (inactive) | 12.9 µM (inactive) | 17.7 µM (inactive) | 10.6 µM (inactive) | 17.5 µM (inactive)
5 | CCOP(=O)(OCC)C(C)(CC)N/C(=N\C1=NC(C(F)(F)F)(C(F)(F)F)N=C(C(F)(F)F)O1)NC(NC(C)=O)(C(F)(F)F)C(F)(F)F (stereo unspecified) | 27 µM (inactive) | 16.9 µM (inactive) | 32.6 µM (inactive) | 20.7 µM (inactive) | 51.2 µM (inactive) | 31.8 µM (inactive) | 58.5 | 42 µM (inactive) | 34.1 µM (inactive) | 40.3 µM (inactive) | 30.8 µM (inactive) | 81.5 µM (inactive) | 33.3 µM (inactive) | 22 µM (inactive) |  | 14.1 µM (inactive) | 28.8 µM (inactive) | > 100 µM (inactive) | 34 µM (inactive) | 9.95 µM (inactive)
6 | C=CCN(C(=O)OC(C)(C)C)[C@H](C)C(=O)N[C@@H](C)C(=O)OC | > 100 µM (inactive) | > 100 µM (inactive) |  | > 100 µM (inactive) | > 100 µM (inactive) |  | > 100 | > 100 µM (inactive) | > 100 µM (inactive) | > 100 µM (inactive) | > 100 µM (inactive) | > 100 µM (inactive) | > 100 µM (inactive) | > 100 µM (inactive) | > 100 µM (inactive) | > 100 µM (inactive) | > 100 µM (inactive) | > 100 µM (inactive) |  | > 100 µM (inactive)
7 | CNC(=O)c1nnn(Cc2ccccc2)c1S |  | > 100 µM (inactive) | > 100 µM (inactive) | > 100 µM (inactive) | > 100 µM (inactive) | > 100 µM (inactive) | > 100 | > 100 µM (inactive) | > 100 µM (inactive) | > 100 µM (inactive) | > 100 µM (inactive) | > 100 µM (inactive) | > 100 µM (inactive) | > 100 µM (inactive) |  | > 100 µM (inactive) | > 100 µM (inactive) | > 100 µM (inactive) | > 100 µM (inactive) | 
8 | Fc1ccc(Nc2nnc(-c3ccccn3)s2)cc1 | > 100 µM (inactive) |  | > 100 µM (inactive) | > 100 µM (inactive) | > 100 µM (inactive) | > 100 µM (inactive) | > 100 | > 100 µM (inactive) | > 100 µM (inactive) | > 100 µM (inactive) | > 100 µM (inactive) | > 100 µM (inactive) | > 100 µM (inactive) |  |  | > 100 µM (inactive) | > 100 µM (inactive) | > 100 µM (inactive) |  | > 100 µM (inactive)
9 | CN(C)C(=O)OC(Cn1cncn1)(Cn1cncn1)c1ccc(Cl)cc1Cl | > 100 µM (inactive) | > 100 µM (inactive) | > 100 µM (inactive) | > 100 µM (inactive) | > 100 µM (inactive) | > 100 µM (inactive) | > 100 | > 100 µM (inactive) |  | > 100 µM (inactive) | > 100 µM (inactive) | > 100 µM (inactive) |  | > 100 µM (inactive) |  | > 100 µM (inactive) |  | > 100 µM (inactive) | > 100 µM (inactive) | > 100 µM (inactive)
10 | O=Nn1c2ccccc2c2ccccc21 | 38.6 µM (inactive) | 58.9 µM (inactive) | 37.7 µM (inactive) | 50.2 µM (inactive) | 85.3 µM (inactive) | 61.2 µM (inactive) | 35.1 | 44.4 µM (inactive) | > 100 µM (inactive) | 71.9 µM (inactive) | 22.4 µM (inactive) | > 100 µM (inactive) | 85.9 µM (inactive) | 55.5 µM (inactive) |  | 63.1 µM (inactive) | 56.2 µM (inactive) | > 100 µM (inactive) | 17.1 µM (inactive) | 66.2 µM (inactive)
11 | COC(=O)c1ccccc1CC1Cc2cccc(C)c2C1=O (stereo unspecified) | 24.8 µM (inactive) | 22.3 µM (inactive) | 24.7 µM (inactive) | 22.9 µM (inactive) | 46.5 µM (inactive) | 34 µM (inactive) | 24 | 80.2 µM (inactive) | 50.5 µM (inactive) | 33.7 µM (inactive) | 11.7 µM (inactive) | 96.4 µM (inactive) | 23.8 µM (inactive) | 27 µM (inactive) |  | 21.4 µM (inactive) | 34.8 µM (inactive) | 32.5 µM (inactive) | 40.3 µM (inactive) | 23.8 µM (inactive)
12 | N=S(c1ccccc1[N+](=O)[O-])c1ccccc1[N+](=O)[O-] | 0.494 µM (active) |  | 2.69 µM (inactive) |  | 1.98 µM (inactive) | 2.33 µM (inactive) | 0.912 | 2.07 µM (inactive) | 1.11 µM (active) | 0.839 µM (active) | 5.04 µM (inactive) | 2.64 µM (inactive) | 1.23 µM (inactive) | 4.79 µM (inactive) |  | 1.78 µM (inactive) | 1.22 µM (inactive) | 4.28 µM (inactive) | 3.4 µM (inactive) | 1.89 µM (inactive)
13 | NC(CCC(=O)O)C(=O)NC(Cc1ccc(N(CCCl)CCCl)cc1)C(=O)O (stereo unspecified) | > 100 µM (inactive) | > 100 µM (inactive) | > 100 µM (inactive) | > 100 µM (inactive) | > 100 µM (inactive) | > 100 µM (inactive) | > 100 | 81.8 µM (inactive) | > 100 µM (inactive) | > 100 µM (inactive) | > 100 µM (inactive) | > 100 µM (inactive) | > 100 µM (inactive) | > 100 µM (inactive) |  | > 100 µM (inactive) | > 100 µM (inactive) | > 100 µM (inactive) | > 100 µM (inactive) | > 100 µM (inactive)
14 | O=C(O)CSC1=NCCN1 | > 100 µM (inactive) | > 100 µM (inactive) | > 100 µM (inactive) | > 100 µM (inactive) | > 100 µM (inactive) |  | > 100 | > 100 µM (inactive) | > 100 µM (inactive) | > 100 µM (inactive) | > 100 µM (inactive) | > 100 µM (inactive) | > 100 µM (inactive) |  | > 100 µM (inactive) | > 100 µM (inactive) | > 100 µM (inactive) | > 100 µM (inactive) |  | > 100 µM (inactive)
15 | Cc1ccc(C2=NN(C)COC2C(F)(F)F)cc1 (stereo unspecified) | > 100 µM (inactive) | > 100 µM (inactive) | > 100 µM (inactive) | > 100 µM (inactive) | > 100 µM (inactive) | > 100 µM (inactive) | > 100 | > 100 µM (inactive) | > 100 µM (inactive) | > 100 µM (inactive) | > 100 µM (inactive) |  | > 100 µM (inactive) | > 100 µM (inactive) | > 100 µM (inactive) | > 100 µM (inactive) | > 100 µM (inactive) | > 100 µM (inactive) | > 100 µM (inactive) | > 100 µM (inactive)
16 | COc1ccc2nc3cc(Cl)ccc3c(Sc3ccc([N+](=O)[O-])cc3)c2c1 | > 10 µM (inactive) | > 10 µM (inactive) | > 10 µM (inactive) | > 100 µM (inactive) | > 10 µM (inactive) | > 10 µM (inactive) | > 10 | > 10 µM (inactive) | > 10 µM (inactive) | > 10 µM (inactive) | > 10 µM (inactive) |  | > 10 µM (inactive) | > 10 µM (inactive) | > 10 µM (inactive) | > 10 µM (inactive) | > 10 µM (inactive) | > 10 µM (inactive) | > 10 µM (inactive) | > 10 µM (inactive)
